The values that follow come from patent publication US20070269379A1, “Penetration Enhancer Combinations for Transdermal Delivery” (priority 2003, published 2007).

The subject of one data set is hairless rat skin. The data set is described as follows: Skin observation and histology after patch application in hairless rats. The conditions noted are these: skin excised after removing the patch, hematoxylin staining. It counts as in vivo.
Data set [1] concerns EpiDerm, a cell culture of normal human derived epidermal keratinocytes. In words: MTT uptake assay of irritation potential on EpiDerm cultures. The conditions noted are these: 4 hrs exposure, vehicle 1:1 PBS:EtOH. It counts as cell-based. The method, then:
Experiments to assess irritation potential were performed on the binary pairs of library CPEs at the compositions that yielded the maximum ER value in the screening experiments using the methyl thiazol tetrazolium (MTT) uptake assay. Irritation potential was estimated using EpiDermTM (MatTek Co., MA, USA, […].com), a cell culture of normal human derived epidermal keratinocytes. EpiDermTM cultures were stored and handled according to the standard protocol MTT-ET-50 (MatTek Co., MA, USA, […].com). To study the effect of the test formulations on cell viability, cell cultures were exposed to 10 μl of each test formulation for 4 hrs. Each test formulation was analyzed in duplicate. At the end of 4 hrs the assay medium was removed and stored aside at -70° C. for Interleukin-1α assay. The cell cultures were rinsed clear of the test formulations using PBS and incubated with 300 μL of MTT reagent (MatTek Co., MA, USA) for 3 hrs at 37° C. and 5% CO2. At the end of the incubation period the cell cultures were treated with 2 ml of extracting media (provided by MatTek Co) for 2 hrs. 200 μL of this extraction media was then sampled and its optical density (or absorbence) was measured at 570 nm wavelength. The optical absorbance data was then used to calculate the percentage cell viability as recommended in the MTT-ET-50 protocol.
(In general: Formazan colour is commonly taken as a measure of viable cells.)

`CCCCCCCCCCCCOS(=O)(=O)[O-].[Na+]` [SLS, Sodium Lauryl Sulfate]: the “histology: state of the stratum corneum” value in the data set on hairless rat skin is “completely detached”.
As for `CCCCCCCC/C=C\CCCCCCCC(=O)O` [oleic acid], the “irritation potential (IP)” value in data set [1] came to 14.5%.
